Publication PMC8376128 (CPT: Pharmacometrics & Systems Pharmacology, 2021)
Where two headings read alike, the source gives them in different places.

Assays:
[1] = Human PK model for AMG 510 fitted to digitized published clinical PK data; format: in vivo; conditions: AMG 510 (human)
NSCLC tumors [2] = conditions: cited from earlier work
NSCLC tumors [3] = conditions: cited from earlier work; remark: listed apart in the source
[4] = patients with NSCLC, single agent

With `C=CC(=O)N1CCN(c2nc(=O)n(-c3c(C)ccnc3C(C)C)c3nc(-c4c(O)cccc4F)c(F)cc23)[C@@H](C)C1` [AMG 510, Sotorasib] the ke [1] was 2.98 day⁻¹, the V1 ([1]; assume 70 kg human) was 110 L and the Vp ([1]; assume 70 kg human) was 4.40 L. The ka ([1]; single dose 960 mg) was 58.1 day⁻¹, the ORR reported (NSCLC tumors [2]; AMG 510 at 960 mg, patients with NSCLC) was 50% and the “overall response rate (ORR)” value (NSCLC tumors [2]; [4]) was ~ 50%. The dose-limiting toxicities (NSCLC tumors [2]; patients, phase I) was “no dose‐limiting toxicities”, the “Fz (data), frequency in tumor size bin 0–0.3” value (NSCLC tumors [2]; six weeks AMG 510) was 0.091 and the “Fz (data), frequency in tumor size bin 0.3–0.5” value (NSCLC tumors [2]; six weeks AMG 510) was 0.136. The “Fz (data), frequency in tumor size bin 0.5–0.7” value (NSCLC tumors [2]; six weeks AMG 510) was 0.272, the “Fz (data), frequency in tumor size bin 0.7–1” value (NSCLC tumors [2]; six weeks AMG 510) was 0.272 and the “Fz (data), frequency in tumor size bin 1–1.2” value (NSCLC tumors [2]; six weeks AMG 510) was 0.227. The “N (data), number of patients in tumor size bin 0–0.3” value (NSCLC tumors [2]; six weeks AMG 510) was 2, the “N (data), number of patients in tumor size bin 0.3–0.5” value (NSCLC tumors [2]; six weeks AMG 510) was 3 and the “N (data), number of patients in tumor size bin 0.5–0.7” value (NSCLC tumors [2]; six weeks AMG 510) was 6. The “N (data), number of patients in tumor size bin 0.7–1” value (NSCLC tumors [2]; six weeks AMG 510) was 6 and the “N (data), number of patients in tumor size bin 1–1.2” value (NSCLC tumors [2]; six weeks AMG 510) was 5.

For `C=C(F)C(=O)N1CCN(c2nc(OC[C@@H]3CCCN3C)nc3c2CCN(c2cccc4cccc(Cl)c24)C3)C[C@@H]1CC#N` [MRTX849, Adagrasib], the “overall response rate (ORR)” value (NSCLC tumors [3]; [4]) is given as ~ 50% and the dose-limiting toxicities (NSCLC tumors [3]; patients, phase I) is given as “no dose‐limiting toxicities”.
